Assay results from patent publication US20230203043A1, “NOVEL IMIDAZOPYRAZINE DERIVATIVES” (Hoffmann-La Roche Inc., priority 2020, published 2023).
Where a name gives a salt, the structure may show the parent alone. Read-outs that look alike come from different tables or passages of the source.

Tested on: Acinetobacter baumannii ATCC17961
Assay: Antimicrobial susceptibility testing: 90% growth inhibitory concentration (IC90) determination in Iso-Sensitest broth, OD600 growth
Assay type: cell-based
Details: Acinetobacter baumannii, ATCC17961, 16 h
Method in brief: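 Twofold compound dilutions (e.g. 50 to 0.097 μM final) in Iso-Sensitest broth with ~5×10^(5) CFU/ml, 35±2 °C. OD600 read every 20 min over 16 h; IC90 from growth inhibition during logarithmic phase.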

[1] = strain ATCC 17961, OD600 growth over 16 h, read-out: A. baumannii ATCC 17961 IC90
[2] = read-out: A. baumannii ATCC 17961 IC90 (uM), strain ATCC 17961, OD600 growth over 16 h

SMILES	IC90 [1] [µM]	IC90 [2] [µM]
Cc1cc(Nc2nccn3c(-c4cn(CC(F)F)nc4C(F)(F)F)cnc23)cc(F)c1C(=O)N1CCN(C(=O)[C@H](C)N)CC1 [Example 664, (S)-2-amino-1-(4-(4-((3-(1-(2,2-difluoroethyl)-3-(trifluoromethyl)-1H-pyrazol-4-yl)imidazo [1,2-a]pyrazin-8-yl)amino)-2-fluoro-6-methylbenzoyl)piperazin-1-yl)propan-1-one]	0.286	
CCc1cc(Nc2nccn3c(-c4cn(CC#N)nc4C(F)(F)F)cnc23)ccc1C(=O)NCC(=O)N1CCCC(N)C1 (stereo not shown) [Example 506, N-[2-(3-amino-1-piperidyl)-2-oxo-ethyl]-4-[[3-[1-(cyanomethyl)-3-(trifluoromethyl)pyrazol-4-yl]imidazo[1,2-a]pyrazin-8-yl]amino]-2-ethyl-benzamide formate]		0.191
N#CCn1cc(-c2cnc3c(Nc4ccc(C(=O)N5CCN(CC(=O)NCCCN)CC5)c(Cl)c4)nccn23)c(C(F)(F)F)n1 [Example 603, N-(3-aminopropyl)-2-(4-(2-chloro-4-((3-(1-(cyanomethyl)-3-(trifluoromethyl)-1H-pyrazol-4-yl)imidazo[1,2-a]pyrazin-8-yl)amino)benzoyl)piperazin-1-yl)acetamide formate]		0.384
Cc1cc(Nc2nccn3c(-c4c[nH]nc4C(F)(F)F)cnc23)ccc1C(=O)N1CCN(C(=O)[C@@H]2C[C@](C)(O)CN2)CC1 [Example 462, formic acid; [4-[(2S,4S)-4-hydroxy-4-methylpyrrolidine-2-carbonyl]piperazin-1-yl]-[2-methyl-4-[[3-[3-(trifluoromethyl)-1H-pyrazol-4-yl]imidazo[1,2-a]pyrazin-8-yl]amino]phenyl]methanone]		0.964
CCc1cc(Nc2nccn3c(-c4cn(CC#N)nc4C(F)(F)F)cnc23)ccc1C(=O)NCC1CC1N (stereo not shown) [Example 623, N-((2-aminocyclopropyl)methyl)-4-((3-(1-(cyanomethyl)-3-(trifluoromethyl)-1H-pyrazol-4-yl)imidazo[1,2-a]pyrazin-8-yl)amino)-2-ethylbenzamide formate]		0.161
C[C@@H](NC(=O)c1ccc(Nc2nccn3c(-c4c[nH]nc4C(F)(F)F)cnc23)cc1Cl)C(=O)N1CC(N)C1 [Example 99, N-[(2R)-1-(3-aminoazetidin-1-yl)-1-oxopropan-2-yl]-2-chloro-4-[[3-[3-(trifluoromethyl)-1H-pyrazol-4-yl]imidazo[1,2-a]pyrazin-8-yl]amino]benzamide formate]		2.08

Further lines, with some results ahead:

IC90 [1] [µM]	SMILES	IC90 [2] [µM]
0.904	CCc1cc(Nc2nccn3c(-c4cn(COC)nc4C(F)F)cnc23)ccc1C(=O)N1CCN(C(=O)[C@H](C)N)CC1 [Example 767, (S)-2-amino-1-(4-(4-((3-(3-(difluoromethyl)-1-(methoxymethyl)-1H-pyrazol-4-yl)imidazo[1,2-a]pyrazin-8-yl)amino)-2-ethylbenzoyl)piperazin-1-yl)propan-1-one]	
0.223	CCc1cc(Nc2nccn3c(-c4cn(CC#N)nc4C(F)(F)F)cnc23)ccc1C(=O)NC [Example 341, 4-[[3-[1-(cyanomethyl)-3-(trifluoromethyl)pyrazol-4-yl]imidazo[1,2-a]pyrazin-8-yl]amino]-2-ethyl-N-methylbenzamide]	
1.92	CCc1cc(Nc2nccn3c(-c4cn(CC#N)nc4C(F)F)cnc23)ccc1C(=O)N1CCN(C(=O)C2CCNCC2)CC1 [Example 792, 2-(3-(difluoromethyl)-4-(8-((3-ethyl-4-(4-(piperidine-4-carbonyl)piperazine-1-carbonyl)phenyl)amino)imidazo[1,2-a]pyrazin-3-yl)-1H-pyrazol-1-yl)acetonitrile]	
0.205	C[C@@H](N)C(=O)N1CCN(C(=O)c2ccc(Nc3nccn4c(-c5c[nH]nc5C(F)(F)F)cnc34)cc2Cl)CC1 [Example 207, (2R)-2-amino-1-[4-[2-chloro-4-[[3-[3-(trifluoromethyl)-1H-pyrazol-4-yl]imidazo[1,2-a]pyrazin-8-yl]amino]benzoyl]piperazin-1-yl]propan-1-one]	
